Data: patent US8765707B2, “MicroRNA-140-5p as a tumor suppressor and sensitizing agent for chemotherapy” (University of Houston System, priority 2011, dated 2014)
Entries after “also recorded” stand apart in the source; their conditions may differ.

What was measured:
MYCN = MYCN induction in conditional MYCN3 cell line (QPCR); assay type: cell-based; settings: 1 ug/ml doxorubicin
Protocol: In FIG. 1 using a conditional MYCN cells line MYCN3, neuroblastoma patients with high and low MYCN were simulated. […] Induced MYCN is functional as shown by alteration in cell cycle distribution 24 hours after exposure to doxorubicin. Chip-PCR results for E-boxes of two known MYCN target genes MIR17HG and MDM2 confirming the specificity of the immunoprecipitation and relative enrichment for MYCN target gene promoters.

[1] = system: CHLA255 neuroblastoma cell line; experiment: Soft agar colony formation (clonogenicity) assay; assay type: cell-based; settings: CHLA255, colony growth at 10 days, triplicate experiments
Protocol: (§1) […] sequences (SEQ ID NOS: 3-4), which mimic miR-140-5p wildtype (SEQ ID NO: 1) and mutant miR-140-5p (SEQ ID NO: 2), were transfected into CHLA255 neuroblastoma cell line upper-GFP vector. Table 1 identifies the nucleotide sequences of the wildtype and mutant microRNAs and their mimics. The altered nucleotides in the mutant sequences are shown in bold.
(§2) The impact of these sequences on these cells was measured by increase in absorbance from the MTT assay (FIG. 2A) and the ability to form colonies on a soft agar plate in a clonogenicity assay (FIG. 2B). Stable cell line expression of microRNAs with GFP were compared to control cells. […] Colony formation assays were carried out in soft agar-representative wells showing colony growth at 10 days. Colonies were stained and counted by eye or by digital image analysis software.

[2] = system: CHLA255 neuroblastoma cell line; experiment: MTT proliferation assay in CHLA255 neuroblastoma cells; assay type: cell-based; settings: CHLA255 stable cell line expressing microRNA with GFP, compared to control cells
Protocol: as §1, §2

[3] = system: CHLA-255 neuroblastoma tumors; experiment: In vivo orthotopic xenograft model of neuroblastoma; set-up: species or system mouse; settings: tumors over-expressing miR-140-5p vs control CHLA-255; Kruskal-Wallis p<0.01; n=9
From the text: FIG. 3 illustrates the impact of miR-140-5p on in vivo orthotopic xenograft model of neuroblastoma. *Kruskal-Wallis method p<0.01; mean±SEM; n=9 in miR-140-5p cohort, n=10 in all other cohorts. Using the contralateral kidney (*) for comparison the average tumor weight for each cohort+SEM.

Compound	Increase in MYCN mRNA message level (MYCN)	Colony counts in soft agar [1]	Proliferation as measured by increase in absorbance from MTT assay [2]	Average tumor weight [3]
COc1cccc2c1C(=O)c1c(O)c3c(c(O)c1C2=O)C[C@@](O)(C(=O)CO)C[C@@H]3O[C@H]1C[C@H](N)[C@H](O)[C@H](C)O1 [doxorubicin]	20 fold	–	–	–
miR-140-5p: SEQ ID NO: 1, CAGUGGUUUUACCCUAUGGUAG (listed as RNA, chemistry not given here)	–	significantly decrease colonies	consistently decrease the proliferation rates; also recorded: significantly decreases the proliferation	significantly smaller than control; also recorded: significantly suppresses in vivo tumor growth and burden
